According to US20130060013A1, “Compounds useful for treating neurodegenerative disorders” (SATORI PHARMACEUTICALS, INC., priority 2011, published 2013):

What was measured:
Aβ-42 = Aβ-42 level in conditioned media of 2B7 cells (MSD 3-PLEX ELISA); type: cell-based; settings: Homo sapiens, compound 5 hours at 37° C., 1% DMSO, percent vehicle fit to 4 parameter curve
Method: (§1) Assays were conducted to determine the ability of a Compound of Formula I to modulate […], and Aβ-38.
(§2) Plates with capture antibodies were blocked for 1-2 hours at room temperature with 150 μL of the manufactures blocking reagent.
(§3) Cultured 2B7 cells in 96 well plate with 250 uL of media per well until confluent;
(§4) Prepared serial dilutions of compounds in DMSO at 100× the final desired concentration;
(§5) Washed wells with 2B7 cells 1× with 250 uL of media;
(§6) Diluted DMSO stocks 1:100 into media:
(§7) Added 250 μL of media containing compounds (1% DMSO) to wells with 2B7 cells for 5 hours at 37° C.
(§8) Diluted conditioned media: 1 part media with 1% DMSO and 1 part blocking buffer;
(§9) 150 μL of the 250 μL of conditioned media were used.
(§10) Standard Curve Sample Prep:
(§11) Prepared per manufacturer's protocol (see above)
(§12) Seven point standard curve samples were prepared that contained Aβ-42, Aβ-40, and Aβ-38. The highest concentration of Aβ-42 and Aβ-38 was 3,000 pg/mL and the highest concentration of Aβ-40 was 10,000 pg/mL. Subsequent serial dilutions were 1:3 and the final composition of each sample was 1 part blocking buffer and 1 part cell medium containing 1% DMSO.
(§13) Overnight Sample Incubation:
(§14) Blocked plates are washed 5× with MSD wash buffer with a plate washer
(§15) 25 uL of detection antibody and blocker G reagent in MSD blocking solution is added
(§16) 25 uL of samples (1 part conditioned media containing 1% DMSO and 1 part MSD blocking buffer) are then added.
(§17) plates are incubated overnight at 4 degrees C. or 2 hours at room temp
(§18) Wash wells 5× with MSD wash buffer
(§19) Added 150 μL 2×MSD read buffer
(§20) A-Beta peptide levels for each peptide are calculated from the standard curve using the MSD software provided with the MSD 2400 Imager. Percent vehicle values for each compound dosage were then calculated and fit to a 4 parameter curve generating IC50 values.

Aβ-38 = Aβ-38 level in conditioned media of 2B7 cells (MSD 3-PLEX ELISA); type: cell-based; settings: Homo sapiens, compound 5 hours at 37° C., 1% DMSO, percent vehicle fit to 4 parameter curve
Method: as §1, §2, §3, §4, §5, §6, §7, §8, §9, §10, §11, §12, §13, §14, §15, §16, §17, §18, §19, §20

| Structure (SMILES) | IC50 (Aβ-42) [µM] | IC50 (Aβ-38) [µM] |
| --- | --- | --- |
| CCO[C@@H](C1C[C@@H](C)[C@H]2C(O1)[C@H](O)[C@@]1(C)C3CC[C@H]4C(C)(C)[C@@H](O[C@H]5CN(c6ncc(F)cn6)CCO5)CCC45C[C@@]35CC[C@]21C)C(C)(C)O (stereo partly shown) | 1 to 10 | 1 to 10 |
| CCO[C@@H]([C@H]1C[C@@H](C)[C@H]2[C@H](O1)[C@H](O)[C@@]1(C)[C@@H]3CC[C@H]4C(C)(C)[C@@H](O[C@H]5CN(C6CN(S(C)(=O)=O)C6)CCO5)CCC45C[C@@]35CC[C@]21C)C(C)(C)O (stereo partly shown) | < 1 | < 1 |
| CCO[C@@H]([C@H]1C[C@@H](C)[C@H]2[C@H](O1)[C@H](O)[C@@]1(C)[C@@H]3CC[C@H]4C(C)(C)[C@@H](OC(=O)[C@H]5CN(C)CCO5)CCC45C[C@@]35CC[C@]21C)C(C)(C)O (stereo partly shown) | < 1 | 1 to 10 |
| CCO[C@@H]([C@H]1C[C@@H](C)[C@H]2[C@H](O1)[C@H](O)[C@@]1(C)[C@@H]3CC[C@H]4C(C)(C)[C@@H](O[C@H]5CNCCO5)CCC45C[C@@]35CC[C@]21C)C(C)(C)OCC (stereo partly shown) | 1 to 10 | 1 to 10 |
| CCO[C@@H]([C@H]1C[C@@H](C)[C@H]2[C@H](O1)[C@H](O)[C@@]1(C)[C@@H]3CC[C@H]4C(C)(C)[C@@H](OC(=O)[C@H]5COCCN5C(=O)OC(C)(C)C)CCC45C[C@@]35CC[C@]21C)C(C)(C)O (stereo partly shown) | 1 to 10 | 1 to 10 |
| CCO[C@@H]([C@H]1C[C@@H](C)[C@H]2[C@H](O1)[C@H](O)[C@@]1(C)[C@@H]3CC[C@H]4C(C)(C)[C@@H](OC(=O)[C@@H]5CCCN5C(=O)OC(C)(C)C)CCC45C[C@@]35CC[C@]21C)C(C)(C)O (stereo partly shown) | 1 to 10 | 1 to 10 |
| CCO[C@@H]([C@H]1C[C@@H](C)[C@H]2[C@H](O1)[C@H](O)[C@@]1(C)[C@@H]3CC[C@H]4C(C)(C)[C@@H](OC(=O)[C@@H]5COCCN5C(=O)OC(C)(C)C)CCC45C[C@@]35CC[C@]21C)C(C)(C)O (stereo partly shown) | 1 to 10 | 1 to 10 |
| CCO[C@@H]([C@H]1C[C@@H](C)[C@H]2[C@H](O1)[C@H](O)[C@@]1(C)[C@@H]3CC[C@H]4C(C)(C)[C@@H](OC(=O)[C@@H]5CN(C)CCO5)CC[C@@]45C[C@@]35CC[C@]21C)C(C)(C)O | < 1 | 1 to 10 |
| CCO[C@@H]([C@H]1C[C@@H](C)[C@H]2[C@H](O1)[C@H](O)[C@@]1(C)[C@@H]3CC[C@H]4C(C)(C)[C@@H](O[C@H]5CN(C(CO)CO)CCO5)CCC45C[C@@]35CC[C@]21C)C(C)(C)O (stereo partly shown) | < 1 | < 1 |
| CCO[C@@H]([C@H]1C[C@@H](C)[C@H]2[C@H](O1)[C@H](O)[C@@]1(C)[C@@H]3CC[C@H]4C(C)(C)[C@@H](OC(=O)[C@@H]5CN(C(=O)OC(C)(C)C)CCO5)CCC45C[C@@]35CC[C@]21C)C(C)(C)O (stereo partly shown) | < 1 | < 1 |
| CCO[C@@H]([C@H]1C[C@@H](C)[C@H]2[C@H](O1)[C@H](O)[C@]1(C)[C@@H]3CC[C@H]4C(C)(C)[C@@H](O[C@H]5CN([C@H](C)C(=O)N6CCC6)CCO5)CC[C@@]45C[C@@]35CC[C@@]21C)C(C)(C)O | < 1 | < 1 |
| CCO[C@@H]([C@H]1C[C@@H](C)[C@H]2[C@H](O1)[C@H](O)[C@]1(C)[C@@H]3CC[C@H]4C(C)(C)[C@@H](O[C@H]5CN([C@H](C)CN6CCC6)CCO5)CC[C@@]45C[C@@]35CC[C@@]21C)C(C)(C)O | < 1 | < 1 |
| CCO[C@@H](C1C[C@@H](C)[C@H]2C(O1)[C@H](O)[C@@]1(C)C3CC[C@H]4C(C)(C)[C@@H](O[C@H]5CN(Cc6ncco6)CCO5)CCC45C[C@@]35CC[C@]21C)C(C)(C)O (stereo partly shown) | < 1 | 1 to 10 |
| CCO[C@@H]([C@H]1C[C@@H](C)[C@H]2[C@H](O1)[C@H](O)[C@@]1(C)[C@@H]3CC[C@H]4C(C)(C)[C@@H](O[C@H]5CN(CC(F)F)CCO5)CCC45C[C@@]35CC[C@]21C)C(C)(C)O (stereo partly shown) | < 1 | 1 to 10 |
| C[C@@H]1C[C@H]([C@H](OCCO)C(C)(C)O)O[C@H]2[C@H]1[C@@]1(C)CC[C@@]34CC35CC[C@H](O[C@H]3CN(C6CN(C7COC7)C6)CCO3)C(C)(C)[C@@H]5CC[C@H]4[C@]1(C)[C@H]2O (stereo partly shown) | 1 to 10 | 1 to 10 |
| CCO[C@@H]([C@H]1C[C@@H](C)[C@H]2[C@H](O1)[C@H](O)[C@@]1(C)[C@@H]3CC[C@H]4C(C)(C)[C@@H](O[C@H]5CN([C@H](C)C(=O)N(C)C)CCO5)CCC45C[C@@]35CC[C@]21C)C(C)(C)O (stereo partly shown) | < 1 | < 1 |
| CCO[C@@H]([C@H]1C[C@@H](C)[C@H]2[C@H](O1)[C@H](O)[C@@]1(C)[C@@H]3CC[C@H]4C(C)(C)[C@@H](O[C@H]5CN(CC(F)(F)F)CCO5)CCC45C[C@@]35CC[C@]21C)C(C)(C)O (stereo partly shown) | 1 to 10 | 1 to 10 |
| CCO[C@@H]([C@H]1C[C@@H](C)[C@H]2[C@H](O1)[C@H](O)[C@@]1(C)[C@@H]3CC[C@H]4C(C)(C)C(O[C@H]5CN(CCNCCNC(=O)CCC6(C)N=N6)CCO5)CC[C@@]45CC35CC[C@]21C)C(C)(C)O (stereo partly shown) | < 1 | 1 to 10 |
| CCO[C@@H]([C@H]1C[C@@H](C)[C@H]2[C@H](O1)[C@H](O)[C@@]1(C)[C@@H]3CC[C@H]4C(C)(C)[C@@H](OC(=O)C5CN(C6COC6)C5)CCC45C[C@@]35CC[C@]21C)C(C)(C)O (stereo partly shown) | < 1 | 1 to 10 |
| CCO[C@@H]([C@H]1C[C@@H](C)[C@H]2[C@H](O1)[C@H](O)[C@@]1(C)[C@@H]3CC[C@H]4C(C)(C)[C@@H](OC(=O)[C@H]5CN(C(=O)OC(C)(C)C)CCO5)CCC45C[C@@]35CC[C@]21C)C(C)(C)O (stereo partly shown) | 1 to 10 | 1 to 10 |
| CCO[C@@H]([C@H]1C[C@@H](C)[C@H]2[C@H](O1)[C@H](O)[C@@]1(C)[C@@H]3CC[C@H]4C(C)(C)[C@@H](OC(=O)[C@H]5COCCN5C(C)C)CCC45C[C@@]35CC[C@]21C)C(C)(C)O (stereo partly shown) | < 1 | 1 to 10 |
| CCO[C@@H]([C@H]1C[C@@H](C)[C@H]2[C@H](O1)[C@H](O)[C@@]1(C)[C@@H]3CC[C@H]4C(C)(C)[C@@H](OC(=O)[C@@H]5COCCN5CCOC)CCC45C[C@@]35CC[C@]21C)C(C)(C)O (stereo partly shown) | < 1 | 1 to 10 |
| CCO[C@@H]([C@H]1C[C@@H](C)[C@H]2[C@H](O1)[C@H](O)[C@@]1(C)[C@@H]3CC[C@H]4C(C)(C)[C@@H](O[C@H]5CN(Cc6nccn6C)CCO5)CCC45C[C@@]35CC[C@]21C)C(C)(C)O (stereo partly shown) | < 1 | 1 to 10 |
| CCO[C@@H]([C@@H]1C[C@H]2[C@H]([C@H](C)C1)[C@@]1(C)CCC34C[C@@]35CC[C@H](O[C@H]3CN([C@@H](C)C(=O)N(C)C)CCO3)C(C)(C)[C@@H]5CC[C@H]4[C@]1(C)[C@H]2O)C(C)(C)O (stereo partly shown) | < 1 | – |
| CCO[C@@H]([C@H]1C[C@@H](C)[C@H]2[C@H](O1)[C@H](O)[C@@]1(C)[C@@H]3CC[C@H]4C(C)(C)[C@@H](O[C@H]5CN(Cc6cncs6)CCO5)CCC45C[C@@]35CC[C@]21C)C(C)(C)O (stereo partly shown) | < 1 | 1 to 10 |
| CCO[C@@H]([C@H]1C[C@@H](C)[C@H]2[C@H](O1)[C@H](O)[C@@]1(C)[C@@H]3CC[C@H]4C(C)(C)[C@@H](O[C@H]5CN(Cc6nccs6)CCO5)CCC45C[C@@]35CC[C@]21C)C(C)(C)O (stereo partly shown) | < 1 | 1 to 10 |
| CCO[C@@H]([C@H]1C[C@@H](C)[C@H]2[C@H](O1)[C@H](O)[C@@]1(C)[C@@H]3CC[C@H]4C(C)(C)[C@@H](O[C@H]5CN(Cc6cnn(C)c6)CCO5)CCC45C[C@@]35CC[C@]21C)C(C)(C)O (stereo partly shown) | < 1 | 1 to 10 |
| CO[C@@H]([C@H]1C[C@@H](C)[C@H]2[C@H](O1)[C@H](O)[C@@]1(C)[C@@H]3CC[C@H]4C(C)(C)[C@@H](O[C@H]5CN(C6(C)COC6)CCO5)CCC45C[C@@]35CC[C@]21C)C(C)(C)O (stereo partly shown) | 1 to 10 | 1 to 10 |
| CCO[C@@H]([C@H]1C[C@@H](C)[C@H]2[C@H](O1)[C@H](O)[C@@]1(C)[C@@H]3CC[C@H]4C(C)(C)[C@@H](O[C@H]5CN(c6ncccn6)CCO5)CCC45C[C@@]35CC[C@]21C)C(C)(C)O (stereo partly shown) | 1 to 10 | 1 to 10 |
| CO[C@@H](C1C[C@@H](C)[C@H]2C(O1)[C@H](O)[C@@]1(C)C3CC[C@H]4C(C)(C)[C@@H](O[C@H]5CN(CCN6CCC6)CCO5)CCC45C[C@@]35CC[C@]21C)C(C)(C)O (stereo partly shown) | < 1 | – |
